Measured values published in EP0979243B1, “ACTIVATION OF PEPTIDES” (Anmat Technology Limited, priority 1997, dated 2006).

Format: biochemical
Description: As an example of particulates for use in drug-delivery or diagnostic assay,liposomes encapsulating Calcein (Sigma) dye were prepared by the extrusion method of Biochim. Biophys. Acta (1985) 812; 55. Specifically, Phosphotidylcholine (12mg) and cholesterol (2mg) were evaporated to form a lipid film in a round bottom flask. The film was hydrated with 2ml of 120mM Calcein in 10mM sodium phosphate/120mM Sodium chloride buffer of pH 7.4. Liposomes were then prepared by ten times extrusion through a 0.2 micron polycarbonate filter using the reported method. Any non-encapsulated dye was removed by gel filtration on a PD-10 column.
In a typical assay a 2ml buffer containing a known concentration (depending on the activity) of a peptide prepared as in Example 1 is treated with 3µl liposomes prepared as in Example 2. The progress of dye leakage from the liposomes indicates release of the marker and is followed by recording an increase in fluorescence signal. The assay can be repeated in the presence of a binder. Where Calcein is used as the dye excitation and emission wavelengths of 490nm and 520nm were used. […]. The concentration of binder required to fully bind the peptide can be evaluated using series of binder concentration at fixed peptide concentrations or vice versa. […]

In the case of `CC[C@H](C)[C@H](NC(=O)CNC(C)=O)C(=O)NCC(=O)N[C@@H](C)C(=O)N[C@H](C(=O)N[C@@H](CC(C)C)C(=O)N[C@@H](CCCNC(=N)N)C(=O)N[C@H](C(=O)N[C@@H](CC(C)C)C(=O)N[C@H](C(=O)N[C@H](C(=O)NCC(=O)N[C@@H](CCCCNC(=O)CCCC[C@@H]1SC[C@@H]2NC(=O)N[C@@H]21)C(=O)N1CCC[C@H]1C(=O)N[C@@H](C)C(=O)N[C@@H](CC(C)C)C(=O)N[C@H](C(=O)N[C@@H](CO)C(=O)N[C@@H](Cc1c[nH]c2ccccc12)C(=O)N[C@H](C(=O)N[C@@H](CCCNC(=N)N)C(=O)N[C@@H](CCCNC(=N)N)C(=O)N[C@@H](CCCNC(=N)N)C(=O)N[C@@H](CCCNC(=N)N)C(=O)N[C@@H](CCC(N)=O)C(=O)N[C@@H](CCC(N)=O)C(N)=O)[C@@H](C)CC)[C@@H](C)CC)[C@@H](C)O)[C@@H](C)O)C(C)C)C(C)C` [biotin modified peptide of example 1b], the “stability of integrated system (single reagent) in the inactive form” value (Figure 4A, under 2hrs, avidin and liposomes in 2ml buffer) is reported as “very stable with little or no leakage of the contents” and the “stability and activation of integrated system” value (Figure 4B, under 17hrs, nitroavidin and liposomes in 2ml buffer, biotin added at point X) is reported as “stable and activated specifically with ligand”.
